Data reported in patent EP0226508A1, “Indolo[3,2-c]quinoline derivatives, process for their preparation and their anti-tumour activity” (priority 1985, dated 1987).
Where two headings read alike, the source gives them in different places.

How the values were obtained:
[1] = test system: souris consanguines DBA₂ saines; experiment: Acute toxicity, single intraperitoneal injection in healthy mice, mortality at day 7; format: in vivo; conditions: single i.p. injection, 50 mg/kg
[2] = test system: lignée tumorale leucémie L 1210; experiment: In vitro cytotoxic activity on L 1210 leukemia cell culture (inhibition of cell proliferation); format: cell-based; conditions: L 1210 culture in exponential growth, 37°C, after 48 hours of contact, read-out: ID 50 (the source's name)
Method: 1) In vitro : (PAOLETTI et al., Chem. Biol. Interaction, 1979, 25, 45-58).
L'activité cytotoxique des composés de l'invention a été évaluée par des essais in vitro. Ces essais consistent à ajouter des concentrations croissantes du composé à tester à une culture cellulaire de la lignée tumorale leucémie L 1210 en phase exponentielle de croissance. Les cellules sont incubées à 37°C dans une étuve à CO₂ et comptées toutes les 24 heures. Le calcul de l'ID₅₀ (concentration du produit exprimée en micromole 1⁻¹ qui inhibe la prolifération cellulaire à 50 p. 100) est effectuée après 48 heures de contact. Ainsi déterminées les ID₅₀ des composés de l'invention sont rassemblées dans le tableau ci-après.

[3] = test system: leucémie P 388; experiment: animal or person; format: in vivo, souris hybrides CDF 1; conditions: for Nombre de survivants: survivors at J 40; for Variation pondérale en g: in vivo, ip
Source text: (§1) L'activité antitumorale a été testée in vivo sur différentes tumeurs selon le protocole général suivant:
(§2) Toutes les souris mâles ou femelles sont inoculées par voie intrapéritonéale au jour Jo avec une quantité déterminée de cellules tumorales viables, variable selon la tumeur.
(§3) Elles sont ensuite réparties en différents lots. Chaque lot correspondant aux animaux traités par le produit à tester à une dose déterminée est composé de 10 souris. Dans ce cas, le produit à tester est dissous dans l'eau distillée et il est administré, pendant n jours (J₁-Jn) variables selon le protocole choisi, par voie intrapéritonéale à raison de 0,1 ml par 10 g de poids des souris traitées, les doses du produit administré étant précisées dans les tableaux ci-dessous.
(§4) Le lot "contrôle négatif", correspondant aux animaux qui ne sont pas traités par un produit, comprend 2 √N animaux, N étant égal au nombre total de souris traitées par un produit.
(§5) Enfin, tous les essais sont conduits parallèlement à l'étude d'un lot appelé "contrôle positif" de 10 animaux qui est traité par une molécule active, variable selon le protocole choisi, dans les mêmes conditions que les lots traités par le produit à tester, afin de valider l'essai.
(§6) L'activité antitumorale est évaluée en considé-rant l'augmentation du temps de survie des animaux traités par rapport à celui des animaux du lot "contrôle négatif" selon la formule : [formula]
(§7) Un composé est considéré comme étant actif lorsque la valeur du rapport T/C est égale ou supérieure à 125 % selon le protocole retenu. Il est toxique lorsque cette valeur est égale ou inférieure à 85 %. Le produit est également considéré comme toxique lorsque la variation pondérale, exprimée en grammes et calculée par la formule : Poids moyen du lot mesuré au jour 5 -poids moyen du même lot au jour 1 est égale ou inférieure à - 4 g.
a) Test de la leucémie P 388 (GERAN et al., Cancer Chemother, 1972, 2, 07-57).
Les essais sont effectués avec des souris hybrides CDF 1 inoculées par voie intrapéritonéale avec 10⁶ cellules leucémiques de la lignée P 388. Le composé à tester est administré pendant 5 jours (J1-J5). Le contrôle positif du test est le 5-fluorouracile qui est administré dans les mêmes conditions. Le nombre d'animaux survivants est évalué au jour J 40. Un composé est considéré comme étant actif lorsque le rapport T/C est supérieur à 127 %.

[4] = test system: leucémie L 1210; experiment: In vivo antitumour activity, L 1210 leukemia test; parameters: species or system souris hybrides CDF₁; conditions: L 1210, CDF₁ mice; for Nombre de survivants: survivors at J 30
Source text: as §1, §2, §3, §4, §5, §6, §7
b) Test de la leucémie L 1210 (GERAN et al., Cancer Chemother, 1972, 2, 07-57).
Les essais sont effectués avec des souris hybrides CDF₁ inoculées avec 10⁵ cellules leucémiques de la lignée L 1210. Le composé à tester est administré pendant 5 jours (J₁-J₅).Le contrôle positif du test est le 5-fluorouracile administré dans les mêmes conditions. Le nombre d'animaux survivants est évalué au jour J 30. Un composé est considéré comme étant actif lorsque le rapport T/C est supérieur ou égal à 125 %.

[5] = test system: mélanome B 16; experiment: In vivo antitumour activity, B 16 melanoma test; parameters: species or system souris hybrides BDF₁; conditions: for Variation pondérale en g: in vivo, ip
Source text: as §1, §2, §3, §4, §5, §6
Le produit est également considéré comme toxique lorsque la variation pondérale, exprimée en grammes et calculée par la formule : Poids moyen du lot mesuré au jour 5 -poids moyen du même lot au jour 1 est égale ou inférieure à - 4 g.
Les essais sont effectués avec des souris hybrides BDF₁ inoculées avec 0,5 ml d'un homogénat de mélanome B 16 réalisé à partir de 1 g de tumeur dans 10 ml de sérum physiologique. Le composé à tester est administré pendant 9 jours (J₁-J₉).Le contrôle positif du test est le Cis-Platine administré dans les mêmes conditions. Le nombre d'animaux survivants est évalué au jour J 60.

[6] = Mus musculus, P388, ip, P 388, CDF 1 mice, 10 mg/kg i.p. J1-J5, read-out: T/C %
[7] = Mus musculus, P388, ip, P 388, CDF 1 mice, 20 mg/kg i.p. J1-J5, read-out: T/C %
[8] = P 388, CDF 1 mice, 10 mg/kg i.p. J1-J5
[9] = P 388, CDF 1 mice, 20 mg/kg i.p. J1-J5
[10] = Mus musculus, P388, ip, P 388, CDF 1 mice, 5 mg/kg i.p. J1-J5, read-out: T/C %
[11] = Mus musculus, P388, ip, P 388, CDF 1 mice, 2,5 mg/kg i.p. J1-J5, read-out: T/C %
[12] = P 388, CDF 1 mice, 5 mg/kg i.p. J1-J5
[13] = P 388, CDF 1 mice, 2,5 mg/kg i.p. J1-J5
[14] = B 16 melanoma, BDF₁ mice, 5 mg/kg i.p. J1-J9
[15] = B 16 melanoma, BDF₁ mice, 20 mg/kg i.p. J1-J9

Row | Compound | mortalité évaluée au septième jour après l'administration [1] | IC50 ([2]; Mus musculus, L1210) [nM] | response vs control in vivo at 10 mg/kg [3, 6] [%] | response vs control in vivo at 20 mg/kg [3, 7] [%] | Nombre de survivants [3, 8] | Nombre de survivants [3, 9] | Variation pondérale en g ([3]; 10 mg/kg) | Variation pondérale en g ([3]; 20 mg/kg) | response vs control in vivo at 5 mg/kg [3, 10] [%] | response vs control in vivo at 2.5 mg/kg [3, 11] [%] | Nombre de survivants [3, 12] | Nombre de survivants [3, 13] | Variation pondérale en g ([3]; 5 mg/kg) | Jour médian de survie ([4]; 10 mg/kg i.p. J1-J5) | T/C % ([4]; 10 mg/kg i.p. J1-J5) [%] | Nombre de survivants ([4]; 10 mg/kg i.p. J1-J5) | further results
1 | CCN(CC)CCCNc1nc2ccccc2c2[nH]c3ccc(OC)cc3c12 [Dérivé N°5, (diéthylamino-3 propylamino)-6 méthoxy-8 11-H indolo[3,2-c]quinoléine] | aucune mortalité | 690 | 128 | 124 | 0 | 0 | - 0,6 g | + 0,8 g |  |  |  |  |  |  |  |  | response vs control in vivo at 40 mg/kg ([3]; Mus musculus, P388, ip, P 388, CDF 1 mice, 40 mg/kg i.p. J1-J5, read-out: T/C %): 80%; Nombre de survivants ([3]; P 388, CDF 1 mice, 40 mg/kg i.p. J1-J5): 0; Variation pondérale en g ([3]; 40 mg/kg): - 2,1 g
2 | CN(C)CCCNc1nc2ccccc2c2[nH]c3ccc(O)cc3c12 [Dérivé N°12, (diméthylamino-3 propylamino)-6 hydroxy-8 11-H indolo [3,2-c]quinoléine] | aucune mortalité | 80 | 141 |  | 0 |  | - 1,7 g |  | 155 | 141 | 0 | 0 | - 1,2 g |  |  |  | response vs control in vivo at 0.625 mg/kg ([3]; Mus musculus, P388, ip, P 388, CDF 1 mice, 0,625 mg/kg i.p. J1-J5, read-out: T/C %): 129%; response vs control in vivo at 1.25 mg/kg ([3]; Mus musculus, P388, ip, P 388, CDF 1 mice, 1,25 mg/kg i.p. J1-J5, read-out: T/C %): 130%; Nombre de survivants ([3]; P 388, CDF 1 mice, 0,625 mg/kg i.p. J1-J5): 0; Nombre de survivants ([3]; P 388, CDF 1 mice, 1,25 mg/kg i.p. J1-J5): 0
3 | Oc1ccc2[nH]c3c4ccccc4nc(NCCCN4CCOCC4)c3c2c1 [Dérivé N°15, hydroxy-8 (morpholino-3 propylamino)-6 11-H indolo[3,2-c]quinoléine] | aucune mortalité | 280 |  |  |  |  |  |  | 130 | 124 | 0 | 0 | - 1,1 g | 10,2 | 129 | 0 | 
4 | Oc1ccc2[nH]c3c4ccccc4nc(NCCCN4CCCCC4)c3c2c1 [Dérivé N°16, hydroxy-8 (pipéridino-3 propylamino)-6 11-H indolo[3,2-c]quinoléine] | aucune mortalité | 180 | 130 | 77 | 0 | 0 | - 2,5 g | - 4,2 g | 133 | 140 |  | 0 | - 1,7 g | 10,4 | 131 | 0 | Jour médian de survie ([4]; 5 mg/kg i.p. J1-J5): 10; T/C % ([4]; 5 mg/kg i.p. J1-J5): 126%; Nombre de survivants ([4]; 5 mg/kg i.p. J1-J5): 0; Jour médian de survie ([4]; 20 mg/kg i.p. J1-J5): 10,2; T/C % ([4]; 20 mg/kg i.p. J1-J5): 129%; Nombre de survivants ([4]; 20 mg/kg i.p. J1-J5): 0
5 | (éthylamino-3 propylamino)-6 hydroxy-8 11-H indolo[3,2-c]quinoléine [Dérivé N°14] | aucune mortalité |  |  |  |  |  |  |  |  |  | 0 | 0 | + 1,7 g |  |  |  | Jour médian de survie [5, 14]: 34,25; T/C % [5, 14]: 123%; Jour médian de survie [5, 15]: 38,75; T/C % [5, 15]: 139%; Nombre de survivants ([5]; B 16 melanoma, BDF₁ mice, 20 mg/kg i.p. J1-J9, survivors at J 60): 0; Variation pondérale en g ([5]; 5 mg/kg): - 0,2 g; Variation pondérale en g ([5]; 20 mg/kg): - 1,3 g; IC50 [2]: 1400 nM; Jour médian de survie [3, 12]: 14,0; T/C % [3, 12]: 127%; Jour médian de survie [3, 13]: 14,0; T/C % [3, 13]: 127%
